According to patent publication US11845760B2, “PRMT5 inhibitors” (AMGEN INC., priority 2020, dated 2023):

Experiments:
HCT116 MTAP null cells = experiment: HCT116 MTAP null cell line proliferation (CellTiter-Glo cell viability, 6 days); type: cell-based; details: HCT116-MTAP null, 144 h, HCT116 MTAP null cells, 6 days of treatment, CellTiter-Glo cell viability; read-out: HCT-116 MTAP null IC50
Method: (§1) To assess selective anti-proliferative activity of compounds of the invention in cells that have loss expression of MTAP, an HCT-116 isogenic cell line pair was utilized where one cell line was engineered to genetically knockout both MTAP alleles. Cell viability was then assessed in both the parent HCT-116 cell line and the MTAP null cell line after 6 days of treatment with compounds of the present invention. Selective anti-proliferative activity in the MTAP null cell line indicates MTA-cooperative inhibition of PRMT5 and ability to inhibit growth of cancer cells that have loss of MTAP.
(§2) HCT116 MTAP null and WT cells were seeded in 96-well tissue culture plates in RPMI 1640 media+10% fetal bovine serum. Plates were incubated overnight at 37° C. and 5% CO2. Cells were then treated with an 8- or 9-point serial dilution of compound, using a top concentration of 1, or 10 μM, 1:3 serial dilution steps and, a DMSO-only control. Cells were incubated in the presence of drug for 6 days. Effects on cell viability were measured with the CellTiter-Glo® Luminescent Cell Viability Assay (Promega) per manufacturer's recommendation. Assay plates were read on an EnVision™ Multilabel Reader using the Ultra-Sensitive luminescence module. IC50 values were calculated with GraphPad Prism v 5.01 using symmetrical sigmoidal dose-response least squares fit with Hill slope fixed to −1 and top constrain to 100% or GeneData Screener using a 4-parameter logistic model to fit dose response curves.
(§3) Alternatively, compounds could be assayed with a 384 well plate format:
(§4) Compounds were pre-spotted into 384 well plates with a 22-point serial dilution of compound, using a top concentration of 10 or 50 μM, 1:2 serial dilution steps and, a DMSO-only control. HCT116 MTAP null and WT cells were then seeded as above and after 6 days effects on cell viability were measured with the CellTiter-Glo® Luminescent Cell Viability Assay (Promega). Assay plates were read as above and IC50 values were calculated with GeneData Screener using a 4-parameter logistic model to fit dose response curves. The reported IC50 represents the value where the curve transits 50% of control.

HCT116 WT cells = experiment: HCT116 WT cell line proliferation (CellTiter-Glo cell viability, 6 days); type: cell-based; details: Homo sapiens, HCT-116, 144 h, HCT116 WT (parent) cells, 6 days of treatment, CellTiter-Glo cell viability; read-out: HCT-116 WT IC50
Method: as §1, §2, §3, §4

| SMILES | IC50 (HCT116 MTAP null cells) | IC50 (HCT116 WT cells) |
| --- | --- | --- |
| C[C@H]1COC[C@@H](c2ccc(OC(F)(F)F)cc2)N1C(=O)c1ccc2nc(N)c3c(c2c1)COC3 (single isomer, unassigned) [Example 587] | > 1000 nM | > 10000 nM |
| C[C@@H]1COC[C@H](c2ccc(OCCC(F)(F)F)nn2)N1C(=O)c1cc2c3c(c(N)nc2cc1F)[C@@H](C)OC3 [Example 565, ((3R)-4-amino-7-fluoro-3-methyl-1,3-dihydrofuro[3,4-c]quinolin-8-yl)((3R,5S)-3-methyl-5-(6-(3,3,3-trifluoropropoxy)-3-pyridazinyl)-4-morpholinyl)methanone] | 6 nM | 72 nM |
| Cn1ncc2c(N)nc3ccc(C(=O)N4CCOC[C@@H]4c4ccc(C(F)(F)F)cc4)cc3c21 [Example 521, (4-amino-1-methyl-1H-pyrazolo[4,3-c]quinolin-8-yl)((3S)-3-(4-(trifluoromethyl)phenyl)-4-morpholinyl)methanone] | 30 nM | 2080 nM |
| Nc1nc2ccc(C(=O)N3CCOC[C@@H]3c3ccc(C(F)(F)F)cc3)cc2c2cnccc12 [Example 503, (5-aminobenzo[c][2,6]naphthyridin-9-yl)((3S)-3-(4-(trifluoromethyl)phenyl)-4-morpholinyl)methanone] | 39 nM | 867 nM |
| Nc1nc2ccc(C(=O)N3CCOC[C@@H]3c3ccc(OC(F)(F)F)cc3)cc2c2c1COC2 [Example 335, (4-amino-1,3-dihydrofuro[3,4-c]quinolin-8-yl)-[(3S)-3-[4-(trifluoromethoxy)phenyl]morpholin-4-yl]methanone] | 91 nM | 2690 nM |
| CC(C)Oc1ccc([C@H]2COCCN2C(=O)c2cc3c4c(c(N)nc3cn2)COC4)cn1 (mixture of isomers) [Example 323, (4-amino-1,3-dihydrofuro[3,4-c][1,7]naphthyridin-8-yl)((3R)-3-(6-(2-propanyloxy)-3-pyridinyl)-4-morpholinyl)methanone and (4-amino-1,3-dihydrofuro[3,4-c][1,7]naphthyridin-8-yl)((3S)-3-(6-(2-propanyloxy)-3-pyridinyl)-4-morpholinyl)methanone] | 397 nM | – |
| Nc1nc2ccc(C(=O)N3CCOCC3c3ccc(Br)cc3)cc2c2c1COC2 (racemic) [Example 367, (4-amino-1,3-dihydrofuro[3,4-c]quinolin-8-yl)-[rac-(3S)-3-(4-bromophenyl)morpholin-4-yl]methanone] | 368 nM | – |
| Nc1nc2ccc(C(=O)N3CCOCC3c3cccc(Br)c3)cc2c2c1COC2 (racemic) [Example 366, (4-amino-1,3-dihydrofuro[3,4-c]quinolin-8-yl)-[rac-(3S)-3-(3-bromophenyl)morpholin-4-yl]methanone] | 363 nM | – |
| Cc1ccc(C2COCCN2C(=O)c2ccc3nc(N)c4c(c3c2)COC4)cc1 (racemic) [Example 361, (4-amino-1,3-dihydrofuro[3,4-c]quinolin-8-yl)-[rac-(3S)-3-(p-tolyl)morpholin-4-yl]methanone] | 839 nM | – |

Now from value to molecule:

| IC50 (HCT116 MTAP null cells) | IC50 (HCT116 WT cells) | SMILES |
| --- | --- | --- |
| 487 nM | > 10000 nM | C[C@H]1OCc2c1c(N)nc1ccc(C(=O)N3CCOC[C@@H]3c3ccnc(C(F)(F)F)c3)cc21 (racemic) [Example 354, ((3R)-4-amino-3-methyl-1,3-dihydrofuro[3,4-c]quinolin-8-yl)((3R)-3-(2-(trifluoromethyl)-4-pyridinyl)-4-morpholinyl)methanone and ((3R)-4-amino-3-methyl-1,3-dihydrofuro[3,4-c]quinolin-8-yl)((3S)-3-(2-(trifluoromethyl)-4-pyridinyl)-4-morpholinyl)methanone] |
| 346 nM | 19100 nM | Nc1nc2cnc(C(=O)N3CCOCC3c3ccc(F)c(OC(F)(F)F)c3)cc2c2c1COC2 (racemic) [Example 345, (4-amino-1,3-dihydrofuro[3,4-c][1,7]naphthyridin-8-yl)((3R)-3-(4-fluoro-3-(trifluoromethoxy)phenyl)-4-morpholinyl)methanone and (4-amino-1,3-dihydrofuro[3,4-c][1,7]naphthyridin-8-yl)((3S)-3-(4-fluoro-3-(trifluoromethoxy)phenyl)-4-morpholinyl)methanone] |
| 22 nM | 413 nM | Cc1cc2nc(N)c3cnn(C)c3c2cc1C(=O)N1CCOC[C@@H]1c1ccc(C(F)(F)F)cc1 [Example 413, (4-amino-1,7-dimethyl-1H-pyrazolo[4,3-c]quinolin-8-yl)((3S)-3-(4-(trifluoromethyl)phenyl)-4-morpholinyl)methanone] |
| 43 nM | 2400 nM | CCOc1ccc([C@@H]2COC[C@H](C)N2C(=O)c2cc3c4c(c(N)nc3cc2F)COC4)nn1 (racemic) [Example 327, (4-amino-7-fluoro-1,3-dihydrofuro[3,4-c]quinolin-8-yl)((3R,5S)-3-(6-ethoxy-3-pyridazinyl)-5-methyl-4-morpholinyl)methanone and (4-amino-7-fluoro-1,3-dihydrofuro[3,4-c]quinolin-8-yl)((3S,5R)-3-(6-ethoxy-3-pyridazinyl)-5-methyl-4-morpholinyl)methanone] |
| 6 nM | 120 nM | C[C@@H]1COC[C@H](c2ccc(OC(F)F)nn2)N1C(=O)c1cc2c(cc1F)nc(N)c1cnn(C)c12 [Example 561, (4-amino-7-fluoro-1-methyl-1H-pyrazolo[4,3-c]quinolin-8-yl)((3S,5R)-3-(6-(difluoromethoxy)-3-pyridazinyl)-5-methyl-4-morpholinyl)methanone] |
| 764 nM | 318 nM | N#Cc1cnc(C2COCCN2C(=O)c2ccc3nc(N)c4c(c3c2)COC4)cc1Cl (racemic) [Example 492, 4-chloro-6-[rac-(3S)-4-(4-amino-1,3-dihydrofuro[3,4-c]quinoline-8-carbonyl)morpholin-3-yl]pyridine-3-carbonitrile] |
| 186 nM | – | C[C@@H]1COC[C@H](c2cc(F)cc(F)c2)N1C(=O)c1cc2c3c(c(N)nc2cn1)[C@@H](C)OC3 (racemic) [Example 324, ((3R)-4-amino-3-methyl-1,3-dihydrofuro[3,4-c][1,7]naphthyridin-8-yl)((3R,5S)-3-(3,5-difluorophenyl)-5-methyl-4-morpholinyl)methanone and ((3R)-4-amino-3-methyl-1,3-dihydrofuro[3,4-c][1,7]naphthyridin-8-yl)((3S,5R)-3-(3,5-difluorophenyl)-5-methyl-4-morpholinyl)methanone] |
| 1050 nM | – | Nc1nc2ccc(C(=O)N3CCOCC3c3ccccc3Cl)cc2c2c1COC2 (racemic) [Example 360, (4-amino-1,3-dihydrofuro[3,4-c]quinolin-8-yl)-[rac-(3S)-3-(2-chlorophenyl)morpholin-4-yl]methanone] |
| 502 nM | – | Nc1nc2cnc(C(=O)N3CCOCC3c3ccc(C4CC4)nc3)cc2c2c1COC2 (racemic) [Example 495, (4-amino-1,3-dihydrofuro[3,4-c][1,7]naphthyridin-8-yl)-[rac-(3S)-3-(6-cyclopropyl-3-pyridyl)morpholin-4-yl]methanone] |
| 99 nM | – | CC1(C)CN(C(=O)c2ccc3nc(N)c4c(c3c2)COC4)[C@@H](c2ccc(C(F)(F)F)cn2)CO1 (single isomer, unassigned) [Example 594] |
